Measurements reported in ChEMBL document CHEMBL1157469, “Characterization of the drug binding specificity of rat liver fatty acid binding protein” (J Med Chem, 2008).

Experiments:
[1] = target: T1, Fatty acid-binding protein, liver (Rattus norvegicus, UniProt P02692); test: Displacement of 1-anilinonaphthalene-8-sulphonic acid from rat recombinant L-FABP high binding affinity site expressed in Escherichia coli BL21 by competitive fluorescence displacement assay
T1 sequence (P02692 whole entry): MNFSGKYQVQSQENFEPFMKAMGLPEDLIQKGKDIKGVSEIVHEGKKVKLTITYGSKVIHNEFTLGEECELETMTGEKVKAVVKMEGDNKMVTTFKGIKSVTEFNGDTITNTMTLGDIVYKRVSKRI

[2] = target: T1, Fatty acid-binding protein, liver; test: Displacement of 1-anilinonaphthalene-8-sulphonic acid from rat recombinant L-FABP low binding affinity site expressed in Escherichia coli BL21 by competitive fluorescence displacement assay
[3] = target: T2, Fatty acid-binding protein, intestinal (Homo sapiens, UniProt P12104); test: Displacement of 1-anilinonaphthalene-8-sulphonic acid from I-FABP
T2 sequence (P12104 whole entry): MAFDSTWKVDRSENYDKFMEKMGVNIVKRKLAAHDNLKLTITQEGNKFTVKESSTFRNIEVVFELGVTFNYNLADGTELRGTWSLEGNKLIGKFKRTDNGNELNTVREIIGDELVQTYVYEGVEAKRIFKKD

Row | Compound | Ki [1] | Ki [2] | Ki [3] | Ki ([2]; read-out: Ki) | Ki ([1]; read-out: Ki)
1 | CC(=O)Oc1ccccc1C(=O)O [ASPIRIN] | 348 µM | 3780 µM |  |  | 
2 | CC(C)(Oc1ccc(CCNC(=O)c2ccc(Cl)cc2)cc1)C(=O)O [BEZAFIBRATE] |  |  | 33 µM | 44.4 µM | 
3 | CCOC(=O)C(C)(C)Oc1ccc(Cl)cc1 [CLOFIBRATE] |  |  |  |  | 6.92 µM
4 | C[C@@H]1C[C@H]2[C@@H]3CCC4=CC(=O)C=C[C@]4(C)[C@@]3(F)[C@@H](O)C[C@]2(C)[C@@]1(O)C(=O)CO [DEXAMETHASONE] |  |  |  | 41.3 µM | 22.1 µM
5 | O=C(O)Cc1ccccc1Nc1c(Cl)cccc1Cl [DICLOFENAC] |  |  |  | 35.4 µM | 3.22 µM
6 | CC(C)OC(=O)C(C)(C)Oc1ccc(C(=O)c2ccc(Cl)cc2)cc1 [FENOFIBRATE] |  |  |  | 0.405 µM | 0.024 µM
7 | CC(C)(Oc1ccc(C(=O)c2ccc(Cl)cc2)cc1)C(=O)O [FENOFIBRIC ACID] |  |  | 1 µM | 27.5 µM | 0.334 µM
8 | CC(C(=O)O)c1ccc(-c2ccccc2)c(F)c1 (stereo not given) [FLURBIPROFEN] |  |  | 26 µM | 222 µM | 1.18 µM
9 | Cc1ccc(C)c(OCCCC(C)(C)C(=O)O)c1 [GEMFIBROZIL] |  |  |  | 179 µM | 1.86 µM
10 | CC(C)Cc1ccc(C(C)C(=O)O)cc1 (stereo not given) [IBUPROFEN] |  |  |  | 448 µM | 47.6 µM
11 | CC(C(=O)O)c1ccc(N2Cc3ccccc3C2=O)cc1 (stereo not given) [INDOPROFEN] |  |  |  | 161 µM | 1.27 µM
12 | O=C(c1ccccc1)c1ccc2n1CCC2C(=O)O (stereo not given) [KETOROLAC] |  |  |  | 119 µM | 11.6 µM
13 | O=C1Nc2ccc(Cl)cc2C(c2ccccc2Cl)=NC1O (stereo not given) [LORAZEPAM] |  |  |  | 140 µM | 12.9 µM
14 | Cc1ccc(Cl)c(Nc2ccccc2C(=O)O)c1Cl [MECLOFENAMIC ACID] |  |  | 8.9 µM | 0.256 µM | 0.379 µM
15 | CC(C)(C)NCC(O)COc1cccc2c1CC(O)C(O)C2 (stereo not given) [NADOLOL] |  |  |  |  | 2310 µM
16 | C[C@]12C=CC(=O)C=C1CC[C@@H]1[C@@H]2[C@@H](O)C[C@@]2(C)[C@H]1CC[C@]2(O)C(=O)CO [PREDNISOLONE] |  |  |  | 101 µM | 2.66 µM
17 | CC(=O)[C@H]1CC[C@H]2[C@@H]3CCC4=CC(=O)CC[C@]4(C)[C@H]3CC[C@]12C [PROGESTERONE] |  |  | 20 µM |  | 0.027 µM
